The structures appear in SMILES notation. Where only a bound is given, the exact number is not on record here.

endogenous CGRP receptor, sequence (Q16602 23-461): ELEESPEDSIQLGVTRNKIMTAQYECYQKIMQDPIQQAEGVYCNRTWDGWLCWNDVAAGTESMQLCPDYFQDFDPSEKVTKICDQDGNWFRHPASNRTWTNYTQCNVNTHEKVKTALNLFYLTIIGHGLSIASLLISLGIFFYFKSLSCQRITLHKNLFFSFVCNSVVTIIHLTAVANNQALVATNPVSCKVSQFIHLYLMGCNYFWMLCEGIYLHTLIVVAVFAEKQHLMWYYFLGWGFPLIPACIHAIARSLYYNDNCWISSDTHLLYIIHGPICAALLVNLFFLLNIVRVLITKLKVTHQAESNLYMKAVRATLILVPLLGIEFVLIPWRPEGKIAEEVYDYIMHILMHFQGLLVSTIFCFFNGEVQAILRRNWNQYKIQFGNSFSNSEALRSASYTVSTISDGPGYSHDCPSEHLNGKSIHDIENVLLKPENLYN
endogenous CGRP receptor, sequence (O60894 27-148): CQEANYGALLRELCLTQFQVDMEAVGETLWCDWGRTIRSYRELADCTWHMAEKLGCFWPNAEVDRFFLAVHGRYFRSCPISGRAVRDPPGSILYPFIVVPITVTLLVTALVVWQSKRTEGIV

The test addresses endogenous CGRP receptor (Homo sapiens, UniProt O60894+Q16602). As to the kind of experiment: CGRP functional antagonism using SK-N-MC-BLA (4C10), β-lactamase transcriptional reporter assay. The test is classed as cell-based. As to conditions: SK-N-MC (4C10) cells, inhibition of β-lactamase expression in the presence of 200 pM CGRP. An excerpt: Measuring CGRP Functional Antagonism Using SK-N-MC-BLA (4C10):
CGRP functional antagonism was characterized in a cell based transcriptional assay using a recombinant SK-N-MC line. To introduce the transcriptional reporter system, SK-N-MC cell line was transduced with a retroviral vector containing β-lactamase gene downstream of cAMP responsive promoter. The expression of β-lactamase is triggered by cAMP increase that is a downstream event of activation of endogenous CGRP receptor. Single clones were separated using Fluorescent Activated Cell Sorting (FACS) based on CGRP induced β-lactamase activity. β-lactamase activity was measured using a fluorescence energy transfer (FRET) dye, CCF4. […] To evaluate functional antagonist activity of compounds in SK-N-MC (4C10) line, compounds were evaluated for their inhibition of β-lactamase expression in the presence of CGRP.
SK-N-MC (4C10) was cultured in Minimal Essential Media (MEM) (Invitrogen) supplemented with 1 mM non-essential amino acids solution (Invitrogen), 100 units/ml Penicillin-Streptomycin (Invitrogen), 1 mM sodium pyruvate (Invitrogen) and 10% fetal bovine serum. For the β-lactamase assay, low serum, 1% FBS in MEM was used. 30,000 cells were plated into each wells of poly-D-lysine coated 384-well plate (Becton Dickinson) a day prior to the assay. SK-N-MC (4C10) was preincubated with compounds for 30 min before the addition of 200 pM CGRP. The assay was incubated for 3 hours at 37° C. to allow β-lactamase expression. CCF4 dye was added and incubated for 2 hours at room temperature. […] Curve fitting and IC50 calculation were carried about using MOD3.
Consider `CN1CCN(c2ccccc2[C@H]2S[C@](C)(CC(=O)N3CCC(N4CCc5ccccc5NC4=O)CC3)C(=O)N2CCC(C)(C)C)CC1` [Compound 377], for which the IC50 (as a rule, the concentration needed to halve the response being measured) is 1 to 5 µM.
With `CN1CCCC1CCN1C(=O)C(CC(=O)N2CCC(N3Cc4ccccc4NC3=O)CC2)SC1c1ccccc1` (stereo not drawn) [Compound 77] the figure was > 5 µM.
Under `CN(C)CCN(C)c1ccccc1C1SC(CC(=O)N2CCC(N3CCc4ccccc4NC3=O)CC2)C(=O)N1CCC(C)(C)C` (stereo not drawn) [Compound 383] stands 1 to 5 µM; under `CN(C)C1CCN(c2ccccc2C2SC(CC(=O)N3CCC(n4c(=O)[nH]c5ncccc54)CC3)C(=O)N2CCC(C)(C)C)CC1` (stereo not drawn) [Compound 418], > 5 µM; under `CC(C)CCN1C(=O)C(CC(=O)N2CCC(N3Cc4ccccc4NC3=O)CC2)SC1c1cccc(C(F)(F)F)c1F` (stereo not drawn) [Compound 219], 1 to 5 µM.
Under `CC(C)N1CCN(c2ncccc2C2S[C@@H](CC(=O)N3CCC(N4CCc5ccccc5NC4=O)CC3)C(=O)N2CCC(C)(C)C)CC1` (stereo partly drawn) [Compound 444] stands > 5 µM; under `CC(C)CCN1C(=O)C(CC(=O)N2CCC(NC(=O)Nc3ccccn3)CC2)SC1c1ccccc1` (stereo not drawn) [Compound 200], > 5 µM; under `Cc1cc(C2SC(CC(=O)N3CCC(N4CCc5ccccc5NC4=O)CC3)C(=O)N2CCC(C)C)cc2cn[nH]c12` (stereo not drawn) [Compound 206], < 1 µM.
On to `CN1CCN(c2c(Cl)cccc2C2SC(CC(=O)N3CCC(n4cc(-c5ccccc5)[nH]c4=O)CC3)C(=O)N2CCC(C)(C)C)CC1` (stereo not drawn) [Compound 358], for which the IC50 is > 5 µM.
With `CC(C)CCN1C(=O)C(CC(=O)N2CCC3(CC2)OC(=O)Nc2ccccc23)SC1c1ccccc1` (stereo not drawn) [Compound 223] the figure was > 5 µM.
Turning to `CC(C)(C)CCN1C(=O)[C@H](CC(=O)N2CCC(N3Cc4ccccc4NC3=O)CC2)S[C@H]1c1cccc(F)c1N1CCC(N)C1` (stereo partly drawn) [Compound 472], the IC50 is < 1 µM.
With `CC(=O)N1CC2(CCN(C(=O)CC3SC(c4ccccc4)N(CCC(C)C)C3=O)CC2)c2cc(C(F)(F)F)ccc21` (stereo not drawn) [Compound 131] the figure was > 5 µM; with `CC(C)(C)CCN1C(=O)C(CC(=O)N2CCC(N3CCc4ccccc4NC3=O)CC2)SC12CCc1ccccc12` (stereo not drawn) [Compound 318], < 1 µM.
Consider `CC(C)(C)CCN1C(=O)C(CC(=O)N2CCC(N3Cc4ccccc4NC3=O)CC2)SC1c1cccc2cc[nH]c12` (stereo not drawn) [Compound 168], for which the IC50 lay within 1 to 5 µM.
With `COc1ccc(C2SC(CC(=O)N3CCC(N4Cc5ccccc5NC4=O)CC3)C(=O)N2CCC(C)C)cc1` (stereo not drawn) [Compound 272] the figure was 1 to 5 µM; with `CN1CCN(c2ccccc2[C@H]2SC(CC(=O)N3CCC(n4c(=O)[nH]c5ncccc54)CC3)C(=O)N2CCC(C)(C)C)CC1` (stereo partly drawn) [Compound 47], < 1 µM; with `CC(C)CCN1C(=O)C(CC(=O)N2CCC(n3c(=O)[nH]c4ccccc43)CC2)SC1c1ccccc1-n1cccn1` (stereo not drawn) [Compound 291], < 1 µM.
With `CC(C)N1CCN(c2cccc(Cl)c2C2S[C@@H](CC(=O)N3CCC(n4c(=O)[nH]c5ncccc54)CC3)C(=O)N2CCC(C)(C)C)CC1` (stereo partly drawn) [Compound 438] the figure was < 1 µM; with `O=C(CC1SC(c2ccccc2)N(CCC(F)(F)F)C1=O)N1CCC(N2Cc3ccccc3NC2=O)CC1` (stereo not drawn) [Compound 191], < 1 µM; with `CC(C)CCN1C(=O)C(CC(=O)N2CCC(N3CCc4ccccc4NC3=O)CC2)SC1c1cc(C(F)(F)F)ccc1F` (stereo not drawn) [Compound 13], < 1 µM.
With `CC(C)CCN1C(=O)C(CC(=O)N2CCC(n3c(=O)[nH]c4ncccc43)CC2)SC1c1ccccc1` (stereo not drawn) [Compound 69], the IC50 is < 1 µM.
With `O=C(CC1SC(c2c(F)cccc2F)N(CC2CCCCC2)C1=O)N1CCC(N2Cc3ccccc3NC2=O)CC1` (stereo not drawn) [Compound 210] the figure was < 1 µM; with `CC(C)(C)CCN1C(=O)C(CC(=O)N2CCC(n3c(=O)[nH]c4ccccc43)CC2)SC1c1ccccc1N1CCCCC1` (stereo not drawn) [Compound 298], < 1 µM; with `CC(C)(C)CCN1C(=O)C(CC(=O)N2CCC(N3CCc4ccccc4NC3=O)CC2)SC1c1ccccc1N1CCCCC1` (stereo not drawn) [Compound 7], < 1 µM.
With `CCCN1C(=O)[C@H](CC(=O)N2CCC(N3CCc4ccccc4NC3=O)CC2)SC1c1cccc(F)c1N1CCN(C(C)(C)C)CC1` (stereo partly drawn) [Compound 537], the IC50 was < 1 µM.
With `COC(=O)[C@H](CC(C)C)N1C(=O)C(CC(=O)N2CCC(N3Cc4ccccc4NC3=O)CC2)SC1c1ccccc1` (stereo partly drawn) [Compound 205], the IC50 was 1 to 5 µM.
Turning to `CN(C)CCCN(C)c1ccccc1C1SC(CC(=O)N2CCC(N3CCc4ccccc4NC3=O)CC2)C(=O)N1CCC(C)(C)C` (stereo not drawn) [Compound 385], the IC50 fell in the range of 1 to 5 µM.
With `CC(C)(C)CCN1C(=O)C(CC(=O)N2CCC(N3CCc4ccccc4NC3=O)CC2)SC1c1c(F)cccc1F` (stereo not drawn) [Compound 217], the half-inhibitory concentration (IC50) was < 1 µM.
Under `CC(C)CCN1C(=O)C(CC(=O)N2CCC(N3CCc4ccccc4NC3=O)CC2)SC1c1c(F)cccc1Cl` (stereo not drawn) [Compound 221] stands < 1 µM; under `CC(C)CCN1C(=O)C(CC(=O)N2CCC(N3Cc4ccccc4NC3=O)CC2)SC1C(C)c1ccccc1` (stereo not drawn) [Compound 101], > 5 µM; under `CC(C)CC1SC(CC(=O)N2CCC(N3CCc4ccccc4NC3=O)CC2)C(=O)N1CCc1ccncc1` (stereo not drawn) [Compound 245], > 5 µM.
Turning to `CCN1CCN(c2c(F)cccc2C2SC(CC(=O)N3CCC(N4Cc5ccccc5NC4=O)CC3)C(=O)N2CCC(C)(C)C)CC1` (stereo not drawn) [Compound 344], the IC50 was < 1 µM.
Under `CC(C)CCN1C(=O)C(CC(=O)N2CCC(N3CCc4ccccc4NC3=O)CC2)SC1CCc1ccccc1` (stereo not drawn) [Compound 262] stands 1 to 5 µM; under `CC(C)(C)CC1SC(CC(=O)N2CCC(n3c(=O)[nH]c4ncccc43)CC2)C(=O)N1c1ccccc1` (stereo not drawn) [Compound 417], 1 to 5 µM; under `CC(C)(C)CCN1C(=O)C(CC(=O)N2CCC(N3Cc4ccccc4NC3=O)CC2)SC1c1c(F)cccc1F` (stereo not drawn) [Compound 25], < 1 µM.
Under `CC(C)CCN1C(=O)C(CC(=O)N2CCC(N3Cc4ccccc4NC3=O)CC2)SC1C1CCOCC1` (stereo not drawn) [Compound 201] stands 1 to 5 µM.
For the molecule `CC(C)CCN1C(=O)C(CC(=O)N2CCC(n3c(=O)[nH]c4ccccc43)CC2)SC1c1ccccc1N(C)C` (stereo not drawn) [Compound 293], the IC50 is < 1 µM.
As to `CC(C)(C)CCN1C(=O)C(CC(=O)N2CCC(N3CCc4ccccc4NC3=O)CC2)SC12CCCCCC2` (stereo not drawn) [Compound 57], the IC50 was < 1 µM.
Regarding `CC(=O)C1(c2ccccc2)CCN(C(=O)CC2SC(c3ccccc3)N(CCC(C)C)C2=O)CC1` (stereo not drawn) [Compound 141], the IC50 was > 5 µM.
Under `CC(C)(C)CCN1C(=O)C(CC(=O)N2CCC(Nc3ccc(Cl)cc3)CC2)SC1c1cccc(F)c1N1CCN(C(C)(C)C)CC1` (stereo not drawn) [Compound 448] stands < 1 µM; under `CC(C)(C)CCN1C(=O)C(CC(=O)N2CCC(N3CCc4ccccc4NC3=O)CC2)SC1c1cccc2cc[nH]c12` (stereo not drawn) [Compound 277], < 1 µM.
Under `C=CCN1C(=O)C(CC(=O)N2CCC(N3CCc4ccccc4NC3=O)CC2)SC1c1ccccc1` (stereo not drawn) [Compound 96] stands 1 to 5 µM; under `CC(C)CCN1C(=O)C(CC(=O)N2CCC3(CC2)CNC(=O)O3)SC1c1ccccc1` (stereo not drawn) [Compound 261], > 5 µM.
Consider `CC(C)(C)CCN1C(=O)C(CC(=O)N2CCC(N3CCc4ccccc4NC3=O)CC2)SC1c1cccc(F)c1N1CCN(CC(F)(F)F)CC1` (stereo not drawn) [Compound 392], for which the IC50 is > 5 µM.
On to `CCOCCCN1C(=O)C(CC(=O)N2CCC(N3CCc4ccccc4NC3=O)CC2)SC1c1ccccc1` (stereo not drawn) [Compound 4], for which the IC50 was < 1 µM.
Under `CN1C(=O)C(CC(=O)N2CCC(N3CCc4ccccc4NC3=O)CC2)SC1c1ccccc1` (stereo not drawn) [Compound 132] stands 1 to 5 µM.
With `CC(C)(C)CCN1C(=O)[C@H](CC(=O)N2CCC(N3CCc4ccccc4NC3=O)CC2)SC1c1cccc(F)c1N1CCNCC1` (stereo partly drawn) [Compound 398] the figure was > 5 µM; with `CN1CCN(c2cc(F)ccc2C2SC(CC(=O)N3CCC(N4CCc5ccccc5NC4=O)CC3)C(=O)N2CCC(C)(C)C)CC1` (stereo not drawn) [Compound 361], 1 to 5 µM.
Under `Cc1cccc(C)c1C1SC(CC(=O)N2CCC(N3CCc4ccccc4NC3=O)CC2)C(=O)N1CCC(C)C` (stereo not drawn) [Compound 123] stands < 1 µM; under `CC(C)CCN1C(=O)C(CC(=O)N2CCC(N3Cc4ccccc4NC3=O)CC2)SC1c1ccc2c(c1)OCCN2C` (stereo not drawn) [Compound 232], 1 to 5 µM; under `CC(C)CCN1C(=O)C(CC(=O)N2CCC(N3Cc4ccccc4NC3=O)CC2)SC12CCC(C(F)(F)F)CC2` (stereo not drawn) [Compound 253], 1 to 5 µM.
For `CN(C)C1CCN(c2ccccc2C2SC(CC(=O)N3CCC(N4CCc5ccccc5NC4=O)CC3)C(=O)N2CCC(C)(C)C)CC1` (stereo not drawn) [Compound 419], the IC50 lay in the range of 1 to 5 µM.
With `CC(C)CCN1C(=O)C(C(C)C(=O)N2CCC(N3Cc4ccccc4NC3=O)CC2)SC1c1ccccc1` (stereo not drawn) [Compound 156, 3-(1-(2-(3-Isopentyl-4-oxo-2-phenylthiazolidin-5-yl)propanoyl)piperidin-4-yl)-3,4-dihydroquinazolin-2(1H)-one], the IC50 was < 1 µM.
With `CC(C)CCN1C(=O)C(CC(=O)N2CCC(N3Cc4ccccc4NC3=O)CC2)SC12C=CC(C)(C)CC2` (stereo not drawn) [Compound 241] the figure was 1 to 5 µM.

(Values after patent US8163737B2 (Vertex Pharmaceuticals Incorporated, priority 2006, dated 2012).)
